Data from US20210113602A1, “USE OF 6-THIO-2'-DEOXYGUANOSINE (6-THIO-dG) TO TREAT MELANOMA” (The Board of Regents of the University of Texas System, priority 2018, published 2021).
Entries after “also recorded” stand apart in the source; their conditions may differ.

Assays:
[1] = system: NRAS mutant melanoma cells; test: Telomere length, Southern blotting of TRF; type: cell-based, human; settings: 1 μM for 14 days
Description: (§1) FIGS. 2a-h. […] (FIGS. 2a-c) NRASmut melanoma cells (FIG. 2a), BRAF-V600E/NRAS mutant cells derived from melanoma patients resistant to BRAF/MEK inhibitors (FIG. 2b), or non-transformed melanocytes and fibroblasts (FIG. 2c) were treated with 6-thio-dG for 7 days. Cell viability was measured by Alamar Blue assay and calculated relative to DMSO-treated cells. (FIG. 2d) NRASmut melanoma cells and non-transformed human fibroblasts were treated with 1 or 5 μM 6-thio-dG for 7 or 14 days. Cell death was assessed by PSVUe staining. Percent of apoptotic cells is shown. (FIG. 2e) Cells were treated with DMSO or 1 μM 6-thio-dG for 14 days and telomere length was assessed by Southern blotting of TRF. Mean TRF length expressed as kilobase pairs is indicated at the bottom. (FIGS. 2f-g) Cells were treated with 1 μM 6-thio-dG for 7 days. (FIG. 2f) ROS production was measured by H2DCFDA fluorescence and normalized to MSO treated cells. (FIG. 2g) DNA damage was assessed by γH2AX staining. Data represent average from three independent experiments±SEM. *p<0.05; **p<0.01; ***p<0.005 in unpaired Student's t-test. […] Tumor volume was measured and average tumor volume (n=4)±SEM was plotted vs. time.
Telomere length assay. […] The images were analyzed with Phosphorimager, visualized by Typhoon 9410 Imager (GE Healthcare), and processed with ImageQuant 5.2 software (Molecular Dynamics).

[2] = system: BRAF-V600E/NRAS mutant cells derived from melanoma patients resistant to BRAF/MEK inhibitors; test: Cell viability, Alamar Blue assay; type: cell-based, human; settings: 7 days; relative to DMSO-treated cells
Description: as §1, with “staining.” for “staining. Data represent average from three independent experiments±SEM. *p<0.05; **p<0.01; ***p<0.005 in unpaired Student's t-test.”
(§2) Cell culture, viability and cell death assays. […] Cell viability was assessed following 6 hr incubation with 500 μM Alamar Blue (ThermoFisher Scientific, Waltham, Mass.) using an EnVision Xcite Multilabel plate reader (Perkin Elmer, Waltham, Mass.). […]

[3] = system: NRAS mutant melanoma cells; test: Cell viability, Alamar Blue assay; type: cell-based, human; settings: 7 days; relative to DMSO-treated cells
Description: as §1, with “staining.” for “staining. Data represent average from three independent experiments±SEM. *p<0.05; **p<0.01; ***p<0.005 in unpaired Student's t-test.”
as §2

[4] = system: non-transformed primary human melanocytes; test: Cell viability, Alamar Blue assay; type: cell-based; settings: 7 days; telomerase negative cells
Description: as §1, with “staining.” for “staining. Data represent average from three independent experiments±SEM. *p<0.05; **p<0.01; ***p<0.005 in unpaired Student's t-test.”
as §2

[5] = system: non-transformed primary human fibroblasts; test: Cell viability, Alamar Blue assay; type: cell-based; settings: 7 days; telomerase negative cells
Description: as §1, with “staining.” for “staining. Data represent average from three independent experiments±SEM. *p<0.05; **p<0.01; ***p<0.005 in unpaired Student's t-test.”
as §2

[6] = system: NRAS mutant melanoma cells; test: DNA damage, γH2AX staining; type: cell-based, human; settings: 1 μM for 7 days
Description: as §1
DNA damage and telomere dysfunction assay (TIF). […] Mean fluorescence staining was quantified by flow cytometry. […]

[7] = system: NRAS mutant SKNAS cells; test: Cell death, Annexin V/PI; type: cell-based, human; settings: single agents or combination; 1 μM 6-thio-dG, 5 μM Gam

Nc1nc2c(ncn2[C@H]2C[C@H](O)[C@@H](CO)O2)c(=S)[nH]1 [6-thio-dG, 6-thio-2′-deoxy-guanosine]
telomere length (mean TRF) [1]: without evidence for significant telomere shortening
cell viability [2]: impaired the viability
cell viability [3]: impairs viability; also recorded: impaired the viability
cell viability [4]: did not significantly affect
cell viability [5]: did not significantly affect
γH2AX levels [6]: increased levels
cell death [7]: triggered significant death
